Measurements: PubChem BioAssay (NCI)
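Method: 48-hour compound exposure of cells in 96-well plates, five concentrations, linear interpolation of endpoints. TGI is the concentration that stops growth completely.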

How the values were obtained:
Assay in all cases: DTP human tumour cell line panel, 48 h
[1] = system: OVCAR-5 ovarian
[2] = system: MALME-3M melanoma
[3] = system: A549 NSCLC
[4] = system: NCI-H522 lung
[5] = system: ACHN renal
[6] = system: MDA-N
[7] = system: MDA-MB-435
[8] = system: HT29 colon
[9] = system: COLO 205 colon
[10] = system: MDA-MB-231 breast
[11] = system: UACC-62 melanoma
[12] = system: K-562 leukemia
[13] = system: NCI-H226 lung
[14] = system: SR leukemia
[15] = system: SK-MEL-5 melanoma
[16] = system: M14 melanoma
[17] = system: T-47D breast
[18] = system: HS 578T breast
[19] = system: RXF 393 renal
[20] = system: UO-31 renal
[21] = system: SK-OV-3 ovarian
[22] = system: OVCAR-8 ovarian
[23] = system: OVCAR-4 ovarian
[24] = system: HL-60(TB) leukemia
[25] = system: EKVX NSCLC
[26] = system: TK-10 renal
[27] = system: SK-MEL-28 melanoma
[28] = system: PC-3 prostate
[29] = system: U251 CNS
[30] = system: SNB-75 CNS
[31] = system: NCI-H460 lung
[32] = system: SW-620 colon
[33] = system: SF-268 CNS
[34] = system: SF-539 CNS
[35] = system: DU-145 prostate
[36] = system: OVCAR-3 ovarian
[37] = system: CCRF-CEM leukemia
[38] = system: SF-295 CNS
[39] = system: MOLT-4 leukemia
[40] = system: IGROV1 ovarian
[41] = system: HCC-2998 colon
[42] = system: MCF7 breast
[43] = system: KM12 colon
[44] = system: SN12C renal
[45] = system: HOP-62 NSCLC
[46] = system: CAKI-1 renal
[47] = system: A498 renal
[48] = system: HCT-116 colon
[49] = system: NCI-H23 lung
[50] = system: SNB-19 CNS
[51] = system: BT-549 breast
[52] = system: UACC-257 melanoma
[53] = system: 786-0 renal
[54] = system: HOP-92 NSCLC

Measured: TGI

CC1=N[C@@](C)(C2CC3C=CC2C3=O)COC1=O (some centres undefined)
> 100 µM: all assays above
